From US20160333419A1, “GENE SIGNATURES ASSOCIATED WITH SENSITIVITY TO MDM2 INHIBITORS” (DAIICHI SANKYO COMPANY, LIMITED, priority 2014, published 2016)

Columns and labels:
Test in all cases: OncoPanel cytotoxicity assay
Format in all cases: cell-based
A172 = conditions: Homo sapiens, A 172, 72 hour incubation
Experimental: (§1) Cells were grown in RPMI 1640, 10% FBS, 2 mM L-alanyl-L-Glutamine, 1 mM Na Pyruvate, or a special medium in a humidified atmosphere of 5% CO2 at 37° C. Cells were seeded into 384-well plates and incubated in a humidified atmosphere of 5% CO2 at 37° C. Test compounds were added 24 hours post cell seeding. At the same time, a time zero, untreated cell plate was generated as a control. After a 72 hour incubation period, cells were fixed and stained with nuclear dye to allow visualization of nuclei.
(§2) Compounds were serially diluted 3.16-fold and assayed over 10 concentrations of inhibitor in a final assay concentration of 0.1% DMSO from the highest test concentration specified in the sample information chapter. Automated fluorescence microscopy was carried out using a GE Healthcare InCell Analyzer 1000, and images were collected with a 4× objective. Twelve bit tiff images were acquired using the InCell Analyzer 1000 3.2 and analyzed with Developer Toolbox 1.6 software.
(§3) Cell proliferation was measured by the signal intensity of the incorporated nuclear dye. The cell proliferation assay output is referred to as the relative cell count. To determine the cell proliferation end point, the cell proliferation data output is transformed to percent of control (POC) using the following formula: […]
(§4) Relative cell count IC50 (IC50) is the test compound's concentration that produces 50% of the cell proliferation inhibitory response or 50% cytotoxicity level. IC50 values were calculated using nonlinear regression to fit data to a sigmoidal 4 point, 4 parameter One-Site dose response model, where: y (fit)=A+[(B−A)/(1+((C/x)̂D))]. Curve-fitting, IC50 calculations and report generation were performed using a custom data reduction engine MathIQ based software (AIM). […] In these cases, the IC50 values were expressed as 40 μM and 10 μM, respectively (Table 2).

AGS = conditions: Homo sapiens, 72 hour incubation
Experimental: as §1, §2, §3, §4

AN3 CA = conditions: Homo sapiens, 72 hour incubation
Experimental: as §1, §2, §3, §4

ARH-77 = conditions: Homo sapiens, 72 hour incubation
Experimental: as §1, §2, §3, §4

C32 = conditions: Homo sapiens, 72 hour incubation
Experimental: as §1, §2, §3, §4

CCF-STTG1 = conditions: Homo sapiens, 72 hour incubation
Experimental: as §1, §2, §3, §4

Calu1 = conditions: Homo sapiens, Calu-1, 72 hour incubation
Experimental: as §1, §2, §3, §4

DLD-1 = conditions: Homo sapiens, 72 hour incubation
Experimental: as §1, §2, §3, §4

DMS114 = conditions: Homo sapiens, DMS-114, 72 hour incubation
Experimental: as §1, §2, §3, §4

FaDu = conditions: Homo sapiens, 72 hour incubation
Experimental: as §1, §2, §3, §4

HT-1080 = conditions: Homo sapiens, 72 hour incubation
Experimental: as §1, §2, §3, §4

HT-1197 = conditions: Homo sapiens, HT1197, 72 hour incubation
Experimental: as §1, §2, §3, §4

HT-3 = conditions: Homo sapiens, 72 hour incubation
Experimental: as §1, §2, §3, §4

HT = conditions: Homo sapiens, 72 hour incubation
Experimental: as §1, §2, §3, §4

HUH-6 Clone 5 = conditions: Homo sapiens, HUH-6-clone5, 72 hour incubation
Experimental: as §1, §2, §3, §4

Hs 695T = conditions: Homo sapiens, 72 hour incubation
Experimental: as §1, §2, §3, §4

J82 = conditions: Homo sapiens, 72 hour incubation
Experimental: as §1, §2, §3, §4

JEG-3 = conditions: Homo sapiens, 72 hour incubation
Experimental: as §1, §2, §3, §4

Jurkat = conditions: Homo sapiens, 72 hour incubation
Experimental: as §1, §2, §3, §4

MOLT-16 = conditions: Homo sapiens, 72 hour incubation
Experimental: as §1, §2, §3, §4

Mia PaCa-2 = conditions: Homo sapiens, 72 hour incubation
Experimental: as §1, §2, §3, §4

NCI-H292 = conditions: Homo sapiens, 72 hour incubation
Experimental: as §1, §2, §3, §4

NCIH441 = conditions: Homo sapiens, NCI-H441, 72 hour incubation
Experimental: as §1, §2, §3, §4

SH-4 = conditions: Homo sapiens, 72 hour incubation
Experimental: as §1, §2, §3, §4

SHP-77 = conditions: Homo sapiens, SHP77, 72 hour incubation
Experimental: as §1, §2, §3, §4

SK-LMS-1 = conditions: Homo sapiens, 72 hour incubation
Experimental: as §1, §2, §3, §4

SK-N-AS = conditions: Homo sapiens, 72 hour incubation
Experimental: as §1, §2, §3, §4

SK-N-DZ = conditions: Homo sapiens, 72 hour incubation
Experimental: as §1, §2, §3, §4

SKMES1 = conditions: Homo sapiens, SK-MES-1, 72 hour incubation
Experimental: as §1, §2, §3, §4

SKO-007 = conditions: Homo sapiens, 72 hour incubation
Experimental: as §1, §2, §3, §4

SNB-19 = conditions: Homo sapiens, 72 hour incubation
Experimental: as §1, §2, §3, §4

SW1116 = conditions: Homo sapiens, SW 1116, 72 hour incubation
Experimental: as §1, §2, §3, §4

SW48 = conditions: Homo sapiens, 72 hour incubation
Experimental: as §1, §2, §3, §4

SW948 = conditions: Homo sapiens, 72 hour incubation
Experimental: as §1, §2, §3, §4

SW954 = conditions: Homo sapiens, SW 954, 72 hour incubation
Experimental: as §1, §2, §3, §4

T98G = conditions: Homo sapiens, 72 hour incubation
Experimental: as §1, §2, §3, §4

UM-UC-3 = conditions: Homo sapiens, UMUC3, 72 hour incubation
Experimental: as §1, §2, §3, §4

YAPC = conditions: Homo sapiens, 72 hour incubation
Experimental: as §1, §2, §3, §4

Structure (SMILES) | IC50 (A172) | IC50 (AGS) | IC50 (AN3 CA) | IC50 (ARH-77) | IC50 (C32) | IC50 (CCF-STTG1) | IC50 (Calu1) | IC50 (DLD-1) | IC50 (DMS114) | IC50 (FaDu) | IC50 (HT-1080) | IC50 (HT-1197) | IC50 (HT-3) | IC50 (HT) | IC50 (HUH-6 Clone 5) | IC50 (Hs 695T) | IC50 (J82) | IC50 (JEG-3) | IC50 (Jurkat) | IC50 (MOLT-16) | also measured
CC[C@@H]1CNC2(CC2)CN1C(=O)[C@@H]1C[C@@H](F)CN1C(=O)C1=C(C(C)C)N2C(=N[C@@](C)(c3ccc(Cl)nc3)[C@H]2c2ccc(Cl)c(F)c2)S1 [Compound A, [(5R,6S)-5-(4-Chloro-3-fluorophenyl)-6-(6-chloropyridin-3-yl)-6-methyl-3-(propan-2-yl)-5,6-dihydroimidazo[2,1-b][1,3]thiazol-2-yl][(2S,4R)-2-{[(6R)-6-ethyl-4,7-diazaspiro[2.5]oct-7-yl]carbonyl}-4-fluoropyrrolidin-1-yl]methanone] | 0.795 µM | 0.139 µM | > 40 µM | > 40 µM | > 40 µM | 0.541 µM | > 40 µM | > 40 µM | > 40 µM | > 40 µM | 0.282 µM | 0.235 µM | > 40 µM | > 40 µM | 0.329 µM | 1.28 µM | > 40 µM | 3.62 µM | > 40 µM | 0.236 µM | IC50 (Mia PaCa-2): > 40 µM; IC50 (NCI-H292): 0.479 µM; IC50 (NCIH441): > 40 µM; IC50 (SH-4): 0.59 µM; IC50 (SHP-77): > 40 µM; IC50 (SK-LMS-1): > 40 µM; IC50 (SK-N-AS): > 40 µM; IC50 (SK-N-DZ): > 40 µM; IC50 (SKMES1): 33.8 µM; IC50 (SKO-007): > 40 µM; IC50 (SNB-19): > 40 µM; IC50 (SW1116): > 40 µM; IC50 (SW48): 1.09 µM; IC50 (SW948): > 40 µM; IC50 (SW954): > 40 µM; IC50 (T98G): > 40 µM; IC50 (UM-UC-3): > 40 µM; IC50 (YAPC): > 40 µM
CC1(C)CCC2(CC1)N[C@@H](C(=O)N[C@@H]1CC[C@@H](C(N)=O)OC1)[C@H](c1ccnc(Cl)c1F)[C@]21C(=O)Nc2cc(Cl)ccc21 [Compound B, (3′R,4′S,5′R)—N-[(3R,6S)-6-carbamoyltetrahydro-2H-pyran-3-yl]-6″-chloro-4′-(2-chloro-3-fluoropyridin-4-yl)-4,4-dimethyl-2″-oxo-1″,2″-dihydrodispiro[cyclohexane-1,2′-pyrrolidine-3′,3″-indole]-5′-carboxamide] | 0.0689 µM | 0.0116 µM | 8.75 µM | 7.61 µM | > 10 µM | 0.0852 µM | > 10 µM | 8.91 µM | > 10 µM | > 10 µM | 0.062 µM | 0.135 µM | > 10 µM | > 10 µM | 0.0719 µM | 0.174 µM | > 10 µM | 0.249 µM | > 10 µM | 0.0598 µM | IC50 (Mia PaCa-2): 7.22 µM; IC50 (NCI-H292): 0.0347 µM; IC50 (NCIH441): > 10 µM; IC50 (SH-4): 0.116 µM; IC50 (SHP-77): 8.32 µM; IC50 (SK-LMS-1): > 10 µM; IC50 (SK-N-AS): 8.29 µM; IC50 (SK-N-DZ): > 10 µM; IC50 (SKMES1): 8.73 µM; IC50 (SKO-007): 8.64 µM; IC50 (SNB-19): > 10 µM; IC50 (SW1116): > 10 µM; IC50 (SW48): 0.125 µM; IC50 (SW948): > 10 µM; IC50 (SW954): 8.33 µM; IC50 (T98G): > 10 µM; IC50 (UM-UC-3): > 10 µM; IC50 (YAPC): > 10 µM
